Assay results published in the supplement of paper PMC10307832.

Assays:
Experiment in all cases: relative viability (nuclei count vs DMSO), 5 days (fraction); higher = more cells survive
AZD6482 + Olaparib = compound: Cc1cc([C@@H](C)Nc2ccccc2C(=O)O)c2nc(N3CCOCC3)cc(=O)n2c1 [AZD6482] + O=C(c1cc(Cc2n[nH]c(=O)c3ccccc23)ccc1F)N1CCN(C(=O)C2CC2)CC1 [Olaparib] (partner 8 µM)
Procedure, shortened: (§1)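 Relative viability was taken as the ratio of nuclei in treated wells to nuclei in vehicle wells. Lung cancer cell lines in 1536-well plates received compounds by pin tool one day after seeding, either one drug alone or a fixed anchor-drug dose plus five library-drug doses (not always all listed) in √10 steps. Nuclei were counted on 4× images after 5 days of treatment, and values are medians of duplicate plates.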

AZD6482 + Lapatinib = compound: Cc1cc([C@@H](C)Nc2ccccc2C(=O)O)c2nc(N3CCOCC3)cc(=O)n2c1 [AZD6482] + CS(=O)(=O)CCNCc1ccc(-c2ccc3ncnc(Nc4ccc(OCc5cccc(F)c5)c(Cl)c4)c3c2)o1 [Lapatinib] (partner 2 µM)
Procedure, shortened: as §1

[1] = compound: COc1cc2nc(N3CCCN(C)CC3)nc(NC3CCN(Cc4ccccc4)CC3)c2cc1OC + CS(=O)(=O)N1CCN(Cc2cc3nc(-c4cccc5[nH]ncc45)nc(N4CCOCC4)c3s2)CC1 [Pictilisib] (partner 1 µM)
Procedure, shortened: as §1

[2] = compound: COc1cc2nc(N3CCCN(C)CC3)nc(NC3CCN(Cc4ccccc4)CC3)c2cc1OC + CC(=O)Nc1cccc(-n2c(=O)n(C3CC3)c(=O)c3c(Nc4ccc(I)cc4F)n(C)c(=O)c(C)c32)c1 [Trametinib] (partner 0.02 µM)
Procedure, shortened: as §1

## UMC-11
AZD6482 + Olaparib; first compound 0.08 µM
  relative viability: 0.738
AZD6482 + Olaparib; first compound 0.253 µM
  relative viability: 0.358
AZD6482 + Olaparib; first compound 0.8 µM
  relative viability: 0.357
AZD6482 + Olaparib; first compound 2.53 µM
  relative viability: 0.345
AZD6482 + Olaparib; first compound 8 µM
  relative viability: 0.338
AZD6482 + Lapatinib; first compound 0.08 µM
  relative viability: 0.875
AZD6482 + Lapatinib; first compound 0.253 µM
  relative viability: 0.902
AZD6482 + Lapatinib; first compound 0.8 µM
  relative viability: 1.03
AZD6482 + Lapatinib; first compound 2.53 µM
  relative viability: 0.602
AZD6482 + Lapatinib; first compound 8 µM
  relative viability: 1.34
[1]; first compound 0.2 µM
  relative viability: 0.84
[1]; first compound 0.6325 µM
  relative viability: 0.805
[1]; first compound 2 µM
  relative viability: 0.84
[1]; first compound 6.325 µM
  relative viability: 0.681
[2]; first compound 0.2 µM
  relative viability: 0.741
[2]; first compound 0.6325 µM
  relative viability: 0.729
[2]; first compound 2 µM
  relative viability: 0.836
[2]; first compound 6.325 µM
  relative viability: 0.517
